From US8759318B2, “Phosphoramidate derivatives of guanosine nucleoside compounds for treatment of viral infections” (Inhibitex, Inc., priority 2009, dated 2014) come the findings set out here.

Series [1] can be described thus: Protide stability in normal plasma, human. The series is classed as in vitro ADME. As to conditions: 37° C. As to the method:
(§1) Selected nucleoside 5′-phosphoramidates were examined for stability in human, cynomolgous monkey, rat and mouse plasma at 37° C. at both 30 min and 90 min time points.
(§2) Protide Stability in Normal Plasma: Plasma samples were prepared for analysis as follows. 50 μl of each test sample were distributed a 96-well V-bottom plate. 200 μl of acetonitrile containing 10 ng/ml of an internal standard was added to each plasma sample. The precipitated samples were centrifuged at 2500 rpm, 4° C. for 20 minutes in a Sorvall RT6000S centrifuge (Thermo Scientific, Waltham Mass.) and 100 μl of supernatant from each sample was transferred into a 96 deep well plate followed by the addition of 100 μl H2O to each sample. Samples were covered, mixed well by vortexing and maintained at 2-8° C. before and during analysis. 15 μl of each test sample was analyzed for protide concentrations by liquid chromatography coupled to tandem mass spectrometry (LC-MS/MS). Liquid chromatography was performed with an Agilent 1100 Series HPLC system equipped with a Synergi 4 μm Polar-RP, 30×2.0 mm column (Phenomenex, Torrance, Calif.). The HPLC system was coupled to an API 4000 triple quadrupole mass spectrometer (Applied Biosystems, Framingham, Mass.). Mass spectrometry was performed in positive ion mode and data was analyzed using Analyst® v1.4.2 software (Applied Biosystems, Framingham, Mass.). Data was presented as the percentage of compound recovered as compared to the 0 time point control.

Series [2] can be described thus: Protide stability in normal plasma, mouse. The class given is in vitro ADME. Conditions: 37° C. As to the method:
as §1, §2

The nature of series [3]: Mouse PK: 2'-C-methylguanosine triphosphate levels in liver. As to conditions: 2'-C-methylguanosine triphosphate in mouse liver, 50 mg/kg PO.
The nature of series [4]: Protide stability in normal plasma, cynomolgous monkey. The series is classed as in vitro ADME. As to conditions: 37° C. As for the experimental part: as §1, §2
Series [5] can be described thus: Protide stability in normal plasma, rat. The series is classed as in vitro ADME. Conditions: 37° C. As to the method: as §1, §2
The subject of series [6] is HCV replicon (Genotype 1b). Nature of the series: Luciferase genotype 1b replicon potency assay. Conditions: Hepatitis C virus, GETYPE1B, read-out: IC50 μM, HCV genotype 1b luciferase replicon, Renilla luciferase reporter. (A replicon is a self-replicating genome or part of one, used to study replication in cells.)
The subject of series [7] is Huh7 replicon cells. Nature of the series: Cytotoxicity assay (CellTiter-Glo). Conditions: read-out: CC50 μM; 72 h, CellTiter-Glo. On the technique in general: ATP-based viability assays read luminescence as a measure of living cells.
The conditions of series [8]: mouse, in vivo, po, 50 mg/kg.
A short description of series [9]: Cytotoxicity assay (CellTiter-Glo). As to conditions: human, Huh7 HCV replicon cells (genotype 1b).
Series [10] is described as follows: in vitro. Conditions: human.

Turning to `C[C@H](NP(=O)(OC[C@H]1OC(n2cnc3c(=O)[nH]c(N)nc32)[C@](C)(O)[C@@H]1O)Oc1cccc2ccccc12)C(=O)OCC(C)(C)C` (stereo partly drawn) [A, reference compound], the “% Compound Remaining Compared to %100 Acetonitrile Control” value is listed as 83.2% in [1] (30 min); 80.8% in series [1] (1.5 h); 0% in [2] (30 min); 0% in series [2] (1.5 h); 98.5% in series [4] (30 min); 102.4% in series [4] (1.5 h). The “% Compound Remaining Compared to %100 Acetonitrile Control” value in series [5] (30 min) and in [5] (1.5 h) was 0% in each case. The same compound displayed an AUC0-6 in series [3] of 1584 ng·h/g.
Broadly, the IC50 is the concentration at which inhibition is half-maximal. For `COc1nc(N)nc2c1ncn2[C@@H]1O[C@H](CO)[C@@H](O)[C@@]1(C)O` [Example 2, (2R,3R,4R,5R)-2-(2-amino-6-methoxy-9H-purin-9-yl)-5-(hydroxymethyl)-3-methyltetrahydrofuran-3,4-diol], the IC50 in [6] was determined as 3.1 µM. In series [7], the CC50 is greater than 100 µM. Besides, in series [3], the AUC0-6 is 8748 ng·h/g and the AUC0-24 was 30618 ng·h/g. Also, the “Multiple Above IC90 at Cmax” value in series [8] is 25.1.
On to `CNc1nc(N)nc2c1ncn2C1O[C@H](CO)[C@@H](O)[C@@]1(C)O` (stereo partly drawn) [Example 80, (3R,4R,5R)-2-(2-amino-6-(methylamino)-9H-purin-9-yl)-5-(hydroxymethyl)-3-methyltetrahydrofuran-3,4-diol], for which the IC50 in series [6] was found to be 13 µM. This compound returned a CC50 at 72 h in series [9] greater than 100 µM.
As to `COc1nc(NCc2ccc(F)cc2)nc2c1ncn2[C@@H]1O[C@H](CO)[C@@H](O)[C@@]1(C)O` [Example 92, (2R,3R,4R,5R)-2-(2-(4-fluorobenzylamino)-6-methoxy-9H-purin-9-yl)-5-(hydroxymethyl)-3-methyltetrahydrofuran-3,4-diol], the IC50 in series [6] is greater than 40 µM. The same compound came in with a CC50 at 72 h in series [9] greater than 100 µM.
For the compound `COc1nc(N)nc2c1ncn2C1O[C@H](COP(=O)(N[C@H](C(=O)OCC(C)(C)C)C(C)C)Oc2cccc3ccccc23)[C@@H](O)[C@@]1(C)O` (stereo partly drawn) [Example 42, (2S)-neopentyl 2-((((2R,3R,4R)-5-(2-amino-6-methoxy-9H-purin-9-yl)-3,4-dihydroxy-4-methyltetrahydrofuran-2-yl)methoxy)(naphthalen-1-yloxy)phosphorylamino)-3-methylbutanoate], the “% Compound Remaining Compared to %100 Acetonitrile Control” value in series [1] (30 min) amounted to 88.5%; in series [1] (1.5 h) it was 82.5%; in series [2] (30 min), 66.5%; in series [2] (1.5 h), 45.5%; in series [4] (30 min), 87.0%; in series [4] (1.5 h), 82.5%. Besides, the figures for the “% Compound Remaining Compared to %100 Acetonitrile Control” value in [5] (30 min) and in [5] (1.5 h) were 50.0% and 37.0%, respectively. The IC50 in [6] turned out to be 0.21 µM. The AUC0-6 in series [3] was 1540 ng·h/g. Moreover, the CC50 in series [10] turned out to be 30 µM.
In the case of `CSc1nc(N)nc2c1ncn2[C@@H]1O[C@H](CO)[C@@H](O)[C@@]1(C)O` [Example 88, (2R,3R,4R,5R)-2-(2-amino-6-(methylthio)-9H-purin-9-yl)-5-(hydroxymethyl)-3-methyltetrahydrofuran-3,4-diol], in [6], the IC50 was 11 µM. This compound showed a CC50 at 72 h in series [9] of 150 µM.
For the compound `COc1nc(N)nc2c1ncn2C1O[C@H](CO)C[C@@]1(C)O` (stereo partly drawn) [Example 94, (3R,5S)-2-(2-amino-6-methoxy-9H-purin-9-yl)-5-(hydroxymethyl)-3-methyl-tetrahydrofuran-3-ol], the IC50 in series [6] was greater than 100 µM. Besides, the CC50 at 72 h in [9] was greater than 100 µM.
Turning to `C[C@H](NP(=O)(OC[C@H]1OC(n2cnc3c(=O)[nH]c(N)nc32)[C@](C)(O)[C@@H]1O)Oc1cccc2ccccc12)C(=O)O[C@@H](C)c1ccccc1` (stereo partly drawn) [G, reference compound], the AUC0-6 in series [3] is 6977 ng·h/g.
For `C[C@@]1(O)[C@H](O)[C@@H](CO)O[C@H]1n1cnc2c(NCc3ccccc3)nc(N)nc21` [Example 84, (3R,4R,5R)-2-(2-amino-6-(benzylamino)-9H-purin-9-yl)-5-(hydroxymethyl)-3-methyltetrahydrofuran-3,4-diol], in series [6], the half-maximal inhibitory concentration (IC50) was 27 µM. In series [9], this compound returned a CC50 at 72 h greater than 100 µM.
Consider `CCOc1nc(N)nc2c1ncn2C1O[C@H](CO)[C@@H](O)[C@@]1(C)O` (stereo partly drawn) [Example 72, (3R,4R,5R)-2-(2-amino-6-ethoxy-9H-purin-9-yl)-5-(hydroxymethyl)-3-methyltetrahydrofuran-3,4-diol], for which, in [6], the IC50 is 11 µM. The compound further came in with a CC50 at 72 h in series [9] greater than 100 µM.
In [3], `CC(C)[C@H](NP(=O)(OC[C@H]1OC(n2cnc3c(=O)[nH]c(N)nc32)[C@](C)(O)[C@@H]1O)Oc1cccc2ccccc12)C(=O)OCc1ccccc1` (stereo partly drawn) [M, reference compound] yielded an AUC0-6 of 1937 ng·h/g.
